According to US20250255832A1, “SKIN ADHESIVE PATCH FOR NEGATIVE PRESSURE STIMULATION AND MANUFACTURING METHOD THEREFOR” (Research & Business Foundation Sungkyunkwan University, priority 2022, published 2025):
“Also recorded” adds a separate entry of the source. Like-named read-outs stand apart in the source and are kept apart here.

How the values were obtained:
[1] = delivery depth by the d-SCC for various drugs with different molecular weights on pig skin; type: in vitro ADME; details: applied in combination with d-SCC
Excerpt: FIG. 11 includes: (a) a graph showing the improvement in delivery depth by the d-SCC for various drugs with different molecular weights on pig skin; and (b) images showing the delivered states of the respective drugs under each condition.

[2] = tested on: atopic dermatitis-induced mice; assay: transepidermal water loss in atopic dermatitis-induced mice, drugs combined with d-SCC; type: in vivo; details: applied in combination with the d-SCC patch
Excerpt: FIG. 13 includes: (a) images showing the skin recovery progression in atopic dermatitis-induced mice following the combined application of various drugs and the d-SCC; and (b) a graph illustrating transepidermal water loss over time resulting from the combined application of the respective drugs and the d-SCC.

[3] = artificial skin, vs without a patch

Molecule	delivery depth of drug applied together with d-SCC [1]	other results
Ramoplanin	excellent delivery depth	–
CC1=C(/C=C/C(C)=C/C=C/C(C)=C/CO)C(C)(C)CCC1 [Retinol]	excellent delivery depth	–
Hyaluronic acid	excellent delivery depth	–
Cc1occc(=O)c1O [Maltol]	greatest delivery depth among the tested conditions; also recorded: excellent delivery depth	transepidermal water loss (TEWL) of the skin [2]: recovered to a level closest to that of normal (control) skin
CCN(CC)c1ccc2c(-c3ccccc3C(=O)O)c3ccc(=[N+](CC)CC)cc-3oc2c1.[Cl-] [rhodamine B]	–	delivery depth improved compared to w/o patch ([3]; 30 minutes after removal of the patch): up to 95%; delivery depth improved compared to w/o patch ([3]; after 30 minutes of patch application): up to 138%
Ovalbumin (protein, UniProt P01012 2-386, looked up, hydrophilic compound) Ovalbumin: GSIGAASMEFCFDVFKELKVHHANENIFYCPIAIMSALAMVYLGAKDSTRTQINKVVRFDKLPGFGDSIEAQCGTSVNVHSSLRDILNQITKPNDVYSFSLASRLYAEERYPILPEYLQCVKELYRGGLEPINFQTAADQARELINSWVESQTNGIIRNVLQPSSVDSQTAMVLVNAIVFKGLWEKAFKDEDTQAMPFRVTEQESKPVQMMYQIGLFRVASMASEKMKILELPFASGTMSMLVLLPDEVSGLEQLESIINFEKLTEWTSSNVMEERKIKVYLPRMKMEEKYNLTSVLMAMGITDVFSSSANLSGISSAESLKISQAVHAAHAEINEAGREVVGSAEAGVDAASVSEEFRADHPFLFCIKHIATNAVLFFGRCVSP	excellent delivery depth	–
